Experimental data as given in patent publication US8772252B2, “Coumarin compounds as melanogenesis modifiers and uses thereof” (New York University, priority 2011, dated 2014).

Tested on: cultured murine melanocytes (melan-a)
Experiment: Melanin assay in cultured murine melanocytes (melan-a) screened with library compounds
Type: cell-based
Settings: melan-a cells, 72 hours of incubation
Experimental: The Spectrum Collection library consisting of 2000 drug compounds or natural products represents a source for the identification of compounds useful in the present invention. The library may be screened to identify novel pigmentation inhibitors in cultured murine melanocytes (melan-a). Compounds are dissolved in dimethylsulfoxide (DMSO) to a final concentration of 10 mM. Screening is performed with cultured melanocytes in 24-well plates followed by melanin assay (see below). A minimum change of 50% in melanin formation is established as significant for a pigmentation inhibitor. DMSO may be used as a negative control and the widely used depigmenting agent, hydroquinone, may be used as a positive control on every plate. Primary screening is performed at a final concentration of 1 μM and potential candidates from the primary screening are reconfirmed in duplicate at final concentrations of 1 and 5 μM.
Melan-a cells are plated at 5×10^4 cells per well in 1 ml of culture media in 24-well plates the day before adding the library compounds. All compounds are added at the indicated final concentrations. Cells are harvested after 72 hours of incubation, and the melanin assay is performed.
For further test and mechanism of action studies, the compounds may be purchased from Sigma, MicroSource or other known suppliers. The compounds are dissolved in dimethylsulfoxide (DMSO) to a final concentration of 10 mM, and are tested for their effect on melanin synthesis at the indicated final concentrations.
For the primary and secondary screening, cells were harvested and dissolved in 200 μl of 2N NaOH in 20% DMSO at 70° C. A 180-μl aliquot of the resulting solution was measured for absorbance at 490 nm.
Cells are harvested in extraction buffer (1% Triton X-100, 50 mM Tris, 2 mM EDTA, 150 mM NaCl, pH 7.5) containing a complete protease inhibitor cocktail (Roche). The lysates were centrifuged at 14,000 rpm for 10 minutes at 4° C. BCA protein assay kit (Pierce) was used to measure the protein concentrations of the supernatants, and bovine serum albumin was used as a standard. The remaining pellets were incubated with 100 μl ethanol-ether (1:1) for 10 minutes at room temperature. After removing the ethanol-ether, the pellets were dissolved in 200 μl of 2N NaOH in 20% DMSO at 70° C. A 180-μl aliquot of the resulting solution was measured for absorbance at 490 nm. The melanin contents were normalized to the total amount of protein.

Compound | activity at 1 µM (Mus musculus, Melan-a, 72 h, 1 μM, read-out: % of control melanin remaining after treatment @ 1 μM) | activity at 5 µM (Mus musculus, Melan-a, 72 h, 5 μM, read-out: % of control melanin remaining after treatment @ 5 μM) | % of control melanin remaining after treatment @ 1 μM (1 μM) | % of control melanin remaining after treatment @ 5 μM (5 μM)
CC(C)(OC(=O)c1ccccc1)[C@@H]1Cc2cc3ccc(=O)oc3cc2O1 [compound 36] | 81% | 87% |  | 
COc1c(C(C)C)oc2cc3oc(=O)ccc3cc12 [compound 40] |  |  | 97% | 88%
